Test results reported in paper PMC12540872 (Nature Communications, 2025).

Target: MMOH (hydroxylase of soluble methane monooxygenase, sMMO)
Test: isothermal titration calorimetry
Assay type: binding, Methylosinus trichosporium
Conditions: enthalpically driven; surface site near K323 proposed

Kd: 9.23 ± 1.3 µM
Compound: O=C1OC2(c3cc(I)c(O)c(I)c3Oc3c2cc(I)c(O)c3I)c2c(Cl)c(Cl)c(Cl)c(Cl)c21 [RB, rose bengal]
